Data taken from patent publication US9527885B2, “Hepatitis C virus inhibitors” (BRISTOL-MYERS SQUIBB COMPANY, priority 2011, dated 2016).
Like-named read-outs stand apart in the source and are kept apart here.

Assays:
[1] = tested on: HCV genotype 1a (H77 strain) replicon in HUH-7 cells; test: HCV replicon luciferase reporter assay, genotype 1a; assay type: cell-based; details: Hepatitis C virus, Huh-7, 72 h, HCV genotype 1a replicon luciferase, 3 days incubation, read-out: LE_1a (EC50, range)
From the text: (§1) An HCV replicon whole cell system was established as described by Lohmann V, Korner F, Koch J, Herian U, Theilmann L, Bartenschlager R., Science 285(5424):110-3 (1999) and modified to introduce a luciferase reporter, as first described by Krieger et al (Krieger N, Lohmann V, and Bartenschlager R, J. Virol. 75(10):4614-4624 (2001)). CDNA encoding a humanized form of the Renilla luciferase gene and a linker sequence fused directly to the 3′-end of the luciferase gene were introduced into the replicon construct using an Asc1 restriction site located in core, directly upstream of the neomycin marker gene. The adaptive mutation at position 1179 (serine to isoleucine) was also introduced (Blight K J, Kolykhalov, A A, Rice, C M, Science 290(5498):1972-1974). A stable cell line constitutively expressing this HCV replicon construct was generated by first linearizing plasmid DNAs with ScaI. RNA transcripts were synthesized in vitro using the T7 MegaScript transcription kit (Ambion, Austin, Tex.) according to manufacturer's directions. In vitro transcripts of the cDNA were transfected into the human hepatoma cell line, HUH-7. […] Resulting cell lines were characterized for positive and negative strand RNA production and protein production over time.
A stable HCV replicon luciferase reporter cell line representing the genotype 1a H77 strain (Yanagi M, Purcell R H, Emerson S U, et al. Transcripts from a single full-length cDNA clone of hepatitis C virus are infectious when directly transfected into the liver of a chimpanzee. Proc Natl Acad Sci USA 1997; 94(16):8738-8743) was generated as described previously for the genotype 1b (Con1) replicon luciferase cell line. The replicon construct was modified by introducing mutations were introduced into the genes encoding the NS3 helicase domain (proline replaced by leucine at position 1496) and NS5A (serine to isoleucine at position 2204) to improve replication in cell culture.
(§2) HCV replicon luciferase assays were developed to monitor the inhibitory effects of compounds described in the disclosure on HCV genotypes 1a and 1b viral replication. HUH-7 cells, constitutively expressing the HCV replicon, were grown in Dulbecco's Modified Eagle Media (DMEM) (Gibco-BRL) containing 10% Fetal calf serum (FCS) (Sigma) and 1 mg/mL G418 (Gibco-BRL). Compounds were serially diluted 3 folds in DMSO for a twenty-point titration and subsequently transferred to sterile 384-well tissue-culture treated plates (Corning cat #3571). The plates were then seeded with 50 μL of cells at a density of 3.0×10^3 cells/well in DMEM containing 4% FCS (final DMSO concentration at 0.5%). After 3 days incubation at 37° C., cells were analyzed for Renilla Luciferase activity using the EnduRen as substrate (Promega cat #E6485). The EnduRen substrate was diluted in DMEM and then added to the plates to a final concentration of 7.5 μM. The plates were incubated for 2 hrs at 37° C. and then read immediately for 30 seconds with Viewlux Imager (PerkinElmer) using a luminescence program. To assess cytotoxicity of compounds, CC50 values were generated by multiplexing the EnduRen-containing plates with Cell Titer-Blue (Promega, cat # G8082). Cell-Titer Blue (3 μL) was added to each well and incubated for 8 hrs at 37° C. The fluorescence signal from each well was read, with an excitation wavelength at 525/10 nm and an emission wavelength of 598/10 nm, using the Viewlux Imager.
(§3) The EC50 values for compounds were calculated by using a four-parameter logistic equation: y=A+((B−A)/(1+((C/x)^D))), where A and B denotes minimal and maximal % inhibition, respectively, C is the EC50, D is the hill slope and x represents compound concentration.

[2] = tested on: HCV genotype 1b (Con1) replicon in HUH-7 cells; test: HCV replicon luciferase reporter assay, genotype 1b; assay type: cell-based; details: Hepatitis C virus, 72 h, HCV genotype 1b replicon luciferase, 3 days incubation, read-out: LE_1b (EC50, range)
From the text: as §1, with “time. […]” for “time.”
as §2, §3

Row | SMILES | EC50 ([1]; range class) | EC50 ([2]; range class) | EC50 ([1]; class symbols) | EC50 ([2]; class symbols)
1 | C[C@@H]1CC/C=C\[C@@H]2C[C@@]2(C(=O)NS(=O)(=O)C2CC2)NC(=O)[C@@H]2C[C@@H](Oc3nc4ccccc4c4ccccc34)CN2C(=O)[C@@H](NC(=O)OC(C)(C)C(F)(F)F)[C@H](C)C1 [Compound 5185, 1,1,1-trifluoro-2-methylpropan-2-yl ((2R,6S,7R,9R,13aS,14aR,16aS,Z)-14a-((cyclopropylsulfonyl)carbamoyl)-7,9-dimethyl-5,16-dioxo-2-(phenanthridin-6-yloxy)-1,2,3,5,6,7,8,9,10,11,13a,14,14a,15,16,16a-hexadecahydrocyclopropa[e]pyrrolo[1,2-a][1,4]diazacyclopentadecin-6-yl)carbamate] | < 5.46 nM | < 5.46 nM | – | –
2 | CCOc1cnc(O[C@@H]2C[C@H]3C(=O)N[C@]4(C(=O)NS(=O)(=O)C5(C)CC5)C[C@H]4/C=C\CC[C@H](C)C[C@@H](C)[C@H](NC(=O)OC(C)(C)C(C)(F)F)C(=O)N3C2)c2ccccc12 [Compound 5112, 3,3-difluoro-2-methylbutan-2-yl ((2R,6S,7R,9S,13aS,14aR,16aS,Z)-2-((4-ethoxyisoquinolin-1-yl)oxy)-7,9-dimethyl-14a-(((1-methylcyclopropyl)sulfonyl)carbamoyl)-5,16-dioxo-1,2,3,5,6,7,8,9,10,11,13a,14,14a,15,16,16a-hexadecahydrocyclopropa[e]pyrrolo[1,2-a][1,4]diazacyclopentadecin-6-yl)carbamate] | – | – | 4.82 to 103 nM | 4.82 to 103 nM
3 | C[C@@H]1CC/C=C\[C@@H]2C[C@@]2(C(=O)NS(=O)(=O)C2CC2)NC(=O)[C@@H]2C[C@@H](Oc3nccc4c5c(ccc34)OC(F)(F)O5)CN2C(=O)[C@@H](NC(=O)O[C@@H]2C[C@@H]3C[C@@H]3C2)[C@H](C)C1 [Compound 5274, (1R,3r,5S)-bicyclo[3.1.0]hexan-3-yl ((2R,6S,7R,9R,13aS,14aR,16aS,Z)-14a-((cyclopropylsulfonyl)carbamoyl)-2-((2,2-difluoro-[1,3]dioxolo[4,5-f]isoquinolin-6-yl)oxy)-7,9-dimethyl-5,16-dioxo-1,2,3,5,6,7,8,9,10,11,13a,14,14a,15,16,16a-hexadecahydrocyclopropa[e]pyrrolo[1,2-a][1,4]diazacyclopentadecin-6-yl)carbamate] | < 5.46 nM | < 5.46 nM | – | –
4 | [2H]C([2H])([2H])Oc1cnc(O[C@@H]2C[C@H]3C(=O)N[C@]4(C(=O)NS(=O)(=O)C5(C)CC5)C[C@H]4CCCC[C@H](C)C[C@@H](C)[C@H](NC(=O)OC(C)(C)C(F)(F)F)C(=O)N3C2)c2ccccc12 [Compound 5110, 1,1,1-trifluoro-2-methylpropan-2-yl ((2R,6S,7R,9S,13aR,14aR,16aS)-7,9-dimethyl-14a-(((1-methylcyclopropyl)sulfonyl)carbamoyl)-5,16-dioxo-2-((4-(trideuteromethoxy)isoquinolin-1-yl)oxy)octadecahydrocyclopropa[e]pyrrolo[1,2-a][1,4]diazacyclopentadecin-6-yl)carbamate] | – | – | 4.82 to 103 nM | < 5.46 nM
5 | C[C@@H]1CC/C=C\[C@@H]2C[C@@]2(C(=O)NS(=O)(=O)C2(CF)CC2)NC(=O)[C@@H]2C[C@@H](Oc3nc4c(c5ccccc35)OCCC4)CN2C(=O)[C@@H](NC(=O)OC(C)(C)C(C)(F)F)[C@H](C)C1 [Compound 6032, 3,3-difluoro-2-methylbutan-2-yl ((2R,6S,7R,9R,13aS,14aR,16aS,Z)-2-((3,4-dihydro-2H-pyrano[3,2-c]isoquinolin-6-yl)oxy)-14a-(((1-(fluoromethyl)cyclopropyl)sulfonyl)carbamoyl)-7,9-dimethyl-5,16-dioxo-1,2,3,5,6,7,8,9,10,11,13a,14,14a,15,16,16a-hexadecahydrocyclopropa[e]pyrrolo[1,2-a][1,4]diazacyclopentadecin-6-yl)carbamate] | < 5.46 nM | < 5.46 nM | – | –
